Broadly, the IC50 is the concentration needed to halve the response being measured.

Molecules are shown by their SMILES.

Our source for the IC50 values is patent US8735384B2, “Amino heteroaryl compounds as beta-secretase modulators and methods of use” (Amgen Inc., priority 2010, dated 2014).

In one assay the target is BACE1 (Homo sapiens, UniProt P56817). The experiment in a line: In vitro enzymatic BACE FRET assay. The settings on record: beta secretase enzyme 0.2 nM, FRET substrate 50 nM, pH 4.2; read-out: BACE1 FRET assay (IC50 class). The class given is biochemical. In outline:
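Enzyme activity was measured as release of quenching from a 50 nM fluorophore/quencher peptide spanning the cleavage site, over 1 h. This followed 1 h pre-incubation of 0.2 nM enzyme with compound dilutions at pH 4.2 (acetate, 10% DMSO, genapol). Tris addition ended the reaction before fluorescence was measured.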

Assay [1] concerns Aβ40 in conditioned medium of cells stably expressing Amyloid Precursor Protein (APP). Description: In vitro BACE cell-based assay (HEK cell assay), Aβ40 sandwich ELISA. The settings on record: Homo sapiens, HEK293, 24 h, inhibition of Aβ40, 24 h incubation, read-out: HEK cell assay (IC50 class). The method, boiled down:
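Aβ40 in conditioned medium measured after 24 h compound exposure (10-point series, 100 μM or 10 μM start, 0.1% DMSO) of cells stably expressing APP, seeded 40K/well. Detection: pAb40/6E10-biotin sandwich ELISA at 4°C with time-resolved europium read-out; IC50 derived from percent of control.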
(In an ELISA, binding on a coated surface is turned into a signal by an enzyme label.)

Chain of BACE1 (P56817 46-501, species assumed): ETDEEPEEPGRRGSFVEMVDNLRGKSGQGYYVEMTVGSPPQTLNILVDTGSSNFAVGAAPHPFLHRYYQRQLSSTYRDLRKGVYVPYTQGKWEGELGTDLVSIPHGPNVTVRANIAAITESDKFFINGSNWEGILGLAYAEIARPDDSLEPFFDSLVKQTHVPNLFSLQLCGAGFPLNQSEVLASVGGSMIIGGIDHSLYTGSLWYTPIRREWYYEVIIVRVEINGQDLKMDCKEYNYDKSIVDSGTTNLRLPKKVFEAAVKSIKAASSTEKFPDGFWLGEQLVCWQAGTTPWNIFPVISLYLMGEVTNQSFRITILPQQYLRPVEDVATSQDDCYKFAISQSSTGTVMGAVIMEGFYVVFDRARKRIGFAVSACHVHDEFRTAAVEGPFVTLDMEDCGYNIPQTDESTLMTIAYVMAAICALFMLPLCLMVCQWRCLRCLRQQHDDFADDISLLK

Turning to `Cc1cccc(C(=O)OC2CCCC2)c1-c1ccc2nc(N)c(N3CCOCC3)cc2c1` [Example 19, cyclopentyl 2-(2-amino-3-morpholinoquinolin-6-yl)-3-methylbenzoate], the IC50 is less than 100 nM at BACE1 and 100 to 500 nM in assay [1].
For `CCOC1CCCN(C(=O)c2cccc(C)c2-c2ccc3nc(N)c(N4CCOCC4)cc3c2)C1` (centres unmarked) [Example 85, (2-(2-amino-3-morpholinoquinolin-6-yl)-3-methylphenyl)(3-ethoxypiperidin-1-yl)methanone], in that order: 100 to 500 nM and 1010 to 5000 nM.
As for `Nc1nc2ccc(-c3c(Cl)cccc3C(=O)N3CCCC3)cc2cc1N1CCOCC1` [Example 42, (2-(2-amino-3-morpholinoquinolin-6-yl)-3-chlorophenyl)(pyrrolidin-1-yl)methanone], the values for the IC50 (on BACE1; in assay [1]) were less than 100 nM and 501 to 1000 nM, respectively.
`Cc1cccc(C(=O)N2CCCC2)c1-c1ccc2nc(N)c(N3CCOC(CC(C)C)C3)cc2c1` (centres unmarked) [Example 213, (2-(2-amino-3-(2-isobutylmorpholino)quinolin-6-yl)-3-methylphenyl)(pyrrolidin-1-yl)methanone]: the results for the half-inhibitory concentration (IC50) (on BACE1; in assay [1]) were less than 100 nM and 1010 to 5000 nM, respectively.
With `CCOC(=O)c1cccc(C)c1-c1ccc2nc(N)c(N3CCOCC3)cc2c1` [Example 62, ethyl 2-(2-amino-3-morpholinoquinolin-6-yl)-3-methylbenzoate], the IC50 at BACE1 was in the range of 100 to 500 nM; in assay [1] it was 1010 to 5000 nM.
Take `Cc1cccc(Cc2cccc(C#N)c2)c1-c1ccc2nc(N)c(N3CCOCC3)cc2c1` [Example 200, 3-(2-(2-amino-3-morpholinoquinolin-6-yl)-3-methylbenzyl)benzonitrile]: the IC50 at BACE1 was less than 100 nM; in assay [1], 1010 to 5000 nM.
On to `COc1cccc(C(=O)c2cccc(C)c2-c2ccc3nc(N)c(N4CCOCC4)cc3c2)c1` [Example 177, (2-(2-amino-3-morpholinoquinolin-6-yl)-3-methylphenyl)(3-methoxyphenyl)methanone], for which the IC50 at BACE1 was 100 to 500 nM; in assay [1] it was 1010 to 5000 nM.
As for `Nc1nc2ccc(-c3ccccc3-n3ncc4c3CCCC4)cc2cc1N1CCOCC1` [Example 33, 3-morpholino-6-(2-(4,5,6,7-tetrahydro-1H-indazol-1-yl)phenyl)quinolin-2-amine], the IC50 at BACE1 was 100 to 500 nM; in assay [1], 1010 to 5000 nM.
On to `Cc1cccc(C(=O)N(C)CC(F)(F)F)c1-c1ccc2nc(N)c(N3CCOCC3)cc2c1` [Example 100, 2-(2-amino-3-morpholinoquinolin-6-yl)-N,3-dimethyl-N-(2,2,2-trifluoroethyl)benzamide], for which the IC50 on BACE1 lay in the range of 100 to 500 nM; in assay [1] it was 1010 to 5000 nM.
On to `Cc1cccc(C(=O)N2CC[C@@H](C)C2)c1-c1ccc2nc(N)c(N3CCOCC3)cc2c1` [Example 101, (R)-(2-(2-amino-3-morpholinoquinolin-6-yl)-3-methylphenyl)(3-methylpyrrolidin-1-yl)methanone], for which the IC50 at BACE1 is less than 100 nM; in assay [1] it was 501 to 1000 nM.
Regarding `Cc1cccc(C(=O)N2CCCC2)c1-c1ccc2nc(N)c(N3C[C@@H]4C[C@H]3CO4)cc2c1` [Example 56, (2-(2-amino-3-((1S,4S)-2-oxa-5-azabicyclo[2.2.1]heptan-5-yl)quinolin-6-yl)-3-methylphenyl)(pyrrolidin-1-yl)methanone], the IC50 (on BACE1; in assay [1]) was less than 100 nM throughout.
Take `Cc1cccc(C(=O)N(C)C2CCCCC2)c1-c1ccc2nc(N)c(N3CCOCC3)cc2c1` [Example 112, 2-(2-amino-3-morpholinoquinolin-6-yl)-N-cyclohexyl-N,3-dimethylbenzamide]: the half-inhibitory concentration (IC50) at BACE1 was less than 100 nM; in assay [1], 1010 to 5000 nM.
On to `Cc1cccc(Cc2ccc(F)cc2)c1-c1ccc2nc(N)c(N3CCOCC3)cc2c1` [Example 201, 6-(2-(4-fluorobenzyl)-6-methylphenyl)-3-morpholinoquinolin-2-amine], for which the IC50 is less than 100 nM on BACE1 and 1010 to 5000 nM in assay [1].
Take `Cc1cccc(C(=O)N2[C@H](C)CCC[C@@H]2C)c1-c1ccc2nc(N)c(N3CCOCC3)cc2c1` [Example 84, (2-(2-amino-3-morpholinoquinolin-6-yl)-3-methylphenyl)((2S,6R)-2,6-dimethylpiperidin-1-yl)methanone]: the half-inhibitory concentration (IC50) on BACE1 was less than 100 nM; in assay [1], 501 to 1000 nM.
Regarding `Cc1cccc(C(=O)N2CCC(F)(F)C2)c1-c1ccc2nc(N)c(C3CCOCC3)cc2c1` [Example 211, (2-(2-amino-3-(tetrahydro-2H-pyran-4-yl)quinolin-6-yl)-3-methylphenyl)(3,3-difluoropyrrolidin-1-yl)methanone], the IC50 on BACE1 was less than 100 nM; in assay [1], 100 to 500 nM.
Turning to `Cc1cccc(C2=NCCc3ccccc32)c1-c1ccc2nc(N)c(N3CCOCC3)cc2c1` [Example 4, 6-(2-(3,4-dihydroisoquinolin-1-yl)-6-methylphenyl)-3-morpholinoquinolin-2-amine], the 50% inhibitory concentration (IC50) lay in the range of 100 to 500 nM at BACE1 and 501 to 1000 nM in assay [1].
On to `Cc1cccc(C(=O)N(C)c2ccccc2)c1-c1ccc2nc(N)c(N3CCOCC3)cc2c1` [Example 126, 2-(2-amino-3-morpholinoquinolin-6-yl)-N,3-dimethyl-N-phenylbenzamide], for which the IC50 on BACE1 is 100 to 500 nM; in assay [1] it was 1010 to 5000 nM.
The matching figures for `Cc1cccc(OCC(C)(C)C)c1-c1ccc2nc(N)c(N3CCOCC3)cc2c1` [Example 52, 6-(2-methyl-6-(neopentyloxy)phenyl)-3-morpholinoquinolin-2-amine]: less than 100 nM and greater than 5000 nM.
Turning to `Nc1nc2ccc(-c3c(C#CC4CCCCC4)cccc3C(=O)N3CCCC3)cc2cc1N1CCOCC1` [Example 167, (2-(2-amino-3-morpholinoquinolin-6-yl)-3-(cyclohexylethynyl)phenyl)(pyrrolidin-1-yl)methanone], the IC50 (at BACE1; in assay [1]) was less than 100 nM throughout.
As for `Cc1cccc(C(=O)CC(C)C)c1-c1ccc2nc(N)c(N3CCOCC3)cc2c1` [Example 182, 1-(2-(2-amino-3-morpholinoquinolin-6-yl)-3-methylphenyl)-3-methylbutan-1-one], the IC50 at BACE1 is less than 100 nM; in assay [1], 501 to 1000 nM.
As to `CC(C)(C)CC(=O)c1ccccc1-c1ccc2nc(N)c(N3CCOCC3)cc2c1` [Example 153, 1-(2-(2-amino-3-morpholinoquinolin-6-yl)phenyl)-3,3-dimethylbutan-1-one], the IC50 on BACE1 was 100 to 500 nM; in assay [1], greater than 5000 nM.
In the case of `COC[C@H]1CCCN1C(=O)c1cccc(C)c1-c1ccc2nc(N)c(N3CCOCC3)cc2c1` [Example 70, (R)-(2-(2-amino-3-morpholinoquinolin-6-yl)-3-methylphenyl)(2-(methoxymethyl)pyrrolidin-1-yl)methanone], the figures for the IC50 (on BACE1; in assay [1]) were 100 to 500 nM and 1010 to 5000 nM, respectively.
For the compound `Nc1nc2ccc(-c3ccccc3C(O)C3CCOCC3)cc2cc1N1CCOCC1` (centres unmarked) [Example 12, (2-(2-amino-3-morpholinoquinolin-6-yl)phenyl)(tetrahydro-2H-pyran-4-yl)methanol], the values for the IC50 (at BACE1; in assay [1]) were 1010 to 5000 nM and greater than 5000 nM, respectively.
In the case of `Cc1cccc(C(=O)N2CCC(C)CC2)c1-c1ccc2nc(N)c(N3CCOCC3)cc2c1` [Example 80, (2-(2-amino-3-morpholinoquinolin-6-yl)-3-methylphenyl)(4-methylpiperidin-1-yl)methanone], the IC50 at BACE1 was less than 100 nM; in assay [1] it was 1010 to 5000 nM.
For `Cc1cccc(C(=O)N2CCCC2)c1-c1cc2cc(N3CCOCC3)c(N)nc2cc1F` [Example 39, (2-(2-amino-7-fluoro-3-morpholinoquinolin-6-yl)-3-methylphenyl)(pyrrolidin-1-yl)methanone], the half-maximal inhibitory concentration (IC50) on BACE1 is less than 100 nM; in assay [1] it was 501 to 1000 nM.
With `Cc1cccc(C(=O)N2CCSCC2)c1-c1ccc2nc(N)c(N3CCOCC3)cc2c1` [Example 91, (2-(2-amino-3-morpholinoquinolin-6-yl)-3-methylphenyl)(thiomorpholino)methanone], the results for the IC50 (on BACE1; in assay [1]) were less than 100 nM and 1010 to 5000 nM, respectively.
As for `Cc1cccc(C(=O)N2CCCC2)c1-c1ccc2nc(N)c(N3CCOC[C@@H]3C)cc2c1` [Example 210, (S)-(2-(2-amino-3-(3-methylmorpholino)quinolin-6-yl)-3-methylphenyl)(pyrrolidin-1-yl)methanone], the IC50 lay in the range of 501 to 1000 nM at BACE1 and 1010 to 5000 nM in assay [1].
As for `Cc1cccc(C(=O)N2CCCC2)c1-c1ccc2nc(N)c(N3CCOCC3)cc2c1` [Example 1, (2-(2-amino-3-morpholinoquinolin-6-yl)-3-methylphenyl)(pyrrolidin-1-yl)methanone], the IC50 is less than 100 nM on BACE1 and 100 to 500 nM in assay [1].
For `Cc1ccc(N(C)C(=O)c2cccc(C)c2-c2ccc3nc(N)c(N4CCOCC4)cc3c2)cc1` [Example 131, 2-(2-amino-3-morpholinoquinolin-6-yl)-N,3-dimethyl-N-p-tolylbenzamide], in that order: less than 100 nM and 1010 to 5000 nM.
With `Cc1cccc(C(=O)C2CCCO2)c1-c1ccc2nc(N)c(N3CCOCC3)cc2c1` (centres unmarked) [Example 5, (2-(2-amino-3-morpholinoquinolin-6-yl)-3-methylphenyl)(tetrahydrofuran-2-yl)methanone], the IC50 at BACE1 fell in the range of 100 to 500 nM; in assay [1], 501 to 1000 nM.
In the case of `Cc1cccc(C(=O)Cc2ccccc2)c1-c1ccc2nc(N)c(N3CCOCC3)cc2c1` [Example 185, 1-(2-(2-amino-3-morpholinoquinolin-6-yl)-3-methylphenyl)-2-phenylethanone], the IC50 was less than 100 nM on BACE1 and 1010 to 5000 nM in assay [1].
